# According to patent US10239832B2, “N-(1-hydroxy-3-(pyrrolidinyl)propan-2-yl)pyrrolidine-3-carboxamide derivatives as glucosylceramide synthase inhibitors” (BIOMARIN PHARMACEUTICAL INC., priority 2013, dated 2019):
# Biological target: T1, GCS (Canis lupus familiaris, UniProt A0A8I3MXG6)
# T1 construct: endogenous in cells; host or cells: MDCK (Madin-Darby canine kidney) cells, whole-cell lysate
# T1 sequence (A0A8I3MXG6 1-394): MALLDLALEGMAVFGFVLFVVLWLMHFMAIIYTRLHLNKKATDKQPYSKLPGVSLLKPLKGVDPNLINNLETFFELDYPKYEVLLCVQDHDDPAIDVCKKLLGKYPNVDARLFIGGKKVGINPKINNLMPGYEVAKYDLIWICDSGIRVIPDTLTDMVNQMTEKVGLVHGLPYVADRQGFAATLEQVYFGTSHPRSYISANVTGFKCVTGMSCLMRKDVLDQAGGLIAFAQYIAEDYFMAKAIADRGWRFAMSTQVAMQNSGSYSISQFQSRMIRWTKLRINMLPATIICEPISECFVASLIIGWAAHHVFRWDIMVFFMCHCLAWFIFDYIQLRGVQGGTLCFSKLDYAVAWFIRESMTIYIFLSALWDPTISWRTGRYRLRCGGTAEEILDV
# Test: GCS enzymatic assay (MDCK cell lysate, NBD-ceramide to glucosylceramide, LC/MS)
# Type: biochemical, canine
# Details: Table 2, the table does not say which of the assays; for Data Range (% inhibition): class symbols D, E, F, NA (not active); for IC50: class symbols A, B, C, read-out: Data Range (IC50 values)
# Outline: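 IC50 or percent inhibition came from LC/MS/MS (ESI+, MRM) of NBD-ceramide and glucosylceramide, with tolbutamide as internal standard. The reaction used MDCK (canine) cell lysate as the enzyme source and was ended with acetonitrile. Mock wells received 0.1% DMSO.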
structure (smiles),measurement,value
"Cc1cc(N2CC[C@@H](C(=O)N[C@H](CN3CCCC3)[C@H](O)c3ccc4c(c3)OCCO4)C2)cc(C)n1 [Compound 82, (R)-N-((1R,2R)-1-(2,3-dihydrobenzo[b][1,4]dioxin-6-yl)-1-hydroxy-3-(pyrrolidin-1-yl)propan-2-yl)-1-(2,6-dimethylpyridin-4-yl)pyrrolidine-3-carboxamide]",Data Range (% inhibition),NA (not active—a negative value was generated for % inhibition)
"Cc1cc(N2CC[C@H](C(=O)N[C@H](CN3CCCC3)[C@H](O)c3ccc4c(c3)OCCO4)C2)cc(C)n1 [Compound 82E, (S)-N-((1R,2R)-1-(2,3-dihydrobenzo[b][1,4]dioxin-6-yl)-1-hydroxy-3-(pyrrolidin-1-yl)propan-2-yl)-1-(2,6-dimethylpyridin-4-yl)pyrrolidine-3-carboxamide]",Data Range (% inhibition),NA (not active—a negative value was generated for % inhibition)
"O=C(N[C@H](CN1CCCC1)[C@H](O)c1ccc2c(c1)OCCO2)[C@@H]1CCN(c2ccc3nccnc3c2)C1 [Compound 83, (R)-N-((1R,2R)-1-(2,3-dihydrobenzo[b][1,4]dioxin-6-yl)-1-hydroxy-3-(pyrrolidin-1-yl)propan-2-yl)-1-(quinoxalin-6-yl)pyrrolidine-3-carboxamide]",Data Range (% inhibition),F (1-49% (or less than 50%))
"O=C(N[C@H](CN1CCCC1)[C@H](O)c1ccc2c(c1)OCCO2)C1CCN(c2ccc3nccnc3c2)C1 (stereo partly drawn) [Compound 83C, N-((1R,2R)-1-(2,3-dihydrobenzo[b][1,4]dioxin-6-yl)-1-hydroxy-3-(pyrrolidin-1-yl)propan-2-yl)-1-(quinoxalin-6-yl)pyrrolidine-3-carboxamide]",Data Range (% inhibition),F (1-49% (or less than 50%))
"O=C(N[C@H](CN1CCCC1)[C@H](O)c1ccc2c(c1)OCCO2)[C@H]1CCN(c2ccc3nccnc3c2)C1 [Compound 83D, (S)-N-((1R,2R)-1-(2,3-dihydrobenzo[b][1,4]dioxin-6-yl)-1-hydroxy-3-(pyrrolidin-1-yl)propan-2-yl)-1-(quinoxalin-6-yl)pyrrolidine-3-carboxamide]",Data Range (% inhibition),NA (not active—a negative value was generated for % inhibition)
"O=C(N[C@H](CN1CCCC1)[C@H](O)c1ccc(OC2CC2)c(Cl)c1)[C@@H]1CCN(c2ccc3cc(F)ccc3c2)C1 [Compound 84, (R)-N-((1R,2R)-1-(3-chloro-4-cyclopropoxyphenyl)-1-hydroxy-3-(pyrrolidin-1-yl)propan-2-yl)-1-(6-fluoronaphthalen-2-yl)pyrrolidine-3-carboxamide]",IC50,1 to 30 nM
"O=C(N[C@H](CN1CCCC1)[C@H](O)c1ccc(OC2CC2)c(Cl)c1)[C@H]1CCN(c2ccc3cc(F)ccc3c2)C1 [Compound 84A, (S)-N-((1R,2R)-1-(3-chloro-4-cyclopropoxyphenyl)-1-hydroxy-3-(pyrrolidin-1-yl)propan-2-yl)-1-(6-fluoronaphthalen-2-yl)pyrrolidine-3-carboxamide]",Data Range (% inhibition),F (1-49% (or less than 50%))
"O=C(N[C@H](CN1CCC1)[C@H](O)c1cc(F)c2c(c1)OCCO2)[C@@H]1CCN(c2ccc3ccccc3c2)C1 [Compound 85, (R)-N-((1R,2R)-3-(azetidin-1-yl)-1-(8-fluoro-2,3-dihydrobenzo[b][1,4]dioxin-6-yl)-1-hydroxypropan-2-yl)-1-(naphthalen-2-yl)pyrrolidine-3-carboxamide]",IC50,1 to 30 nM
"O=C(N[C@H](CN1CCC1)[C@H](O)c1ccc(OC2CC2)c(Cl)c1)[C@@H]1CCN(c2ccc3ccccc3c2)C1 [Compound 86, (R)-N-((1R,2R)-3-(azetidin-1-yl)-1-(3-chloro-4-cyclopropoxyphenyl)-1-hydroxypropan-2-yl)-1-(naphthalen-2-yl)pyrrolidine-3-carboxamide]",IC50,1 to 30 nM
"CC(C)(O)COc1ccc([C@@H](O)[C@@H](CN2CCCC2)NC(=O)[C@@H]2CCN(c3ccc(Cl)cc3)C2)cc1Cl [Compound 87, (R)-N-((1R,2R)-1-(3-chloro-4-(2-hydroxy-2-methylpropoxy)phenyl)-1-hydroxy-3-(pyrrolidin-1-yl)propan-2-yl)-1-(4-chlorophenyl)pyrrolidine-3-carboxamide]",IC50,1 to 30 nM
"O=C(N[C@H](CN1CCCC1)[C@H](O)c1ccc2c(c1)OCCO2)[C@@H]1CCN(c2ccc3cc(F)ccc3c2Cl)C1 [Compound 88, (R)-1-(1-chloro-6-fluoronaphthalen-2-yl)-N-((1R,2R)-1-(2,3-dihydrobenzo[b][1,4]dioxin-6-yl)-1-hydroxy-3-(pyrrolidin-1-yl)propan-2-yl)pyrrolidine-3-carboxamide]",Data Range (% inhibition),D (75-100%)
"O=C(N[C@H](CN1CCCC1)[C@H](O)c1ccc2c(c1)OCCO2)C1CCN(c2ccc3cc(F)ccc3c2Cl)C1 (stereo partly drawn) [Compound 88C, 1-(1-chloro-6-fluoronaphthalen-2-yl)-N-((1R,2R)-1-(2,3-dihydrobenzo[b][1,4]dioxin-6-yl)-1-hydroxy-3-(pyrrolidin-1-yl)propan-2-yl)pyrrolidine-3-carboxamide]",Data Range (% inhibition),D (75-100%)
"O=C(N[C@H](CN1CCCC1)[C@H](O)c1ccc2c(c1)OCCO2)[C@H]1CCN(c2ccc3cc(F)ccc3c2Cl)C1 [Compound 88D, (S)-1-(1-chloro-6-fluoronaphthalen-2-yl)-N-((1R,2R)-1-(2,3-dihydrobenzo[b][1,4]dioxin-6-yl)-1-hydroxy-3-(pyrrolidin-1-yl)propan-2-yl)pyrrolidine-3-carboxamide]",Data Range (% inhibition),F (1-49% (or less than 50%))
"O=C(N[C@H](CN1CCC1)[C@H](O)c1cc(F)c2c(c1)OCCO2)[C@@H]1CCN(c2ccc3cc(Cl)ccc3c2)C1 [Compound 89, (R)-N-((1R,2R)-3-(azetidin-1-yl)-1-(8-fluoro-2,3-dihydrobenzo[b][1,4]dioxin-6-yl)-1-hydroxypropan-2-yl)-1-(6-chloronaphthalen-2-yl)pyrrolidine-3-carboxamide]",IC50,1 to 30 nM
"O=C(N[C@H](CN1CCC1)[C@H](O)c1cc(F)c2c(c1)OCCO2)C1CCN(c2ccc3cc(Cl)ccc3c2)C1 (stereo partly drawn) [Compound 89F, N-((1R,2R)-3-(azetidin-1-yl)-1-(8-fluoro-2,3-dihydrobenzo[b][1,4]dioxin-6-yl)-1-hydroxypropan-2-yl)-1-(6-chloronaphthalen-2-yl)pyrrolidine-3-carboxamide]",IC50,1 to 30 nM
"O=C(N[C@H](CN1CCC1)[C@H](O)c1cc(F)c2c(c1)OCCO2)[C@H]1CCN(c2ccc3cc(Cl)ccc3c2)C1 [Compound 89G, (S)-N-((1R,2R)-3-(azetidin-1-yl)-1-(8-fluoro-2,3-dihydrobenzo[b][1,4]dioxin-6-yl)-1-hydroxypropan-2-yl)-1-(6-chloronaphthalen-2-yl)pyrrolidine-3-carboxamide]",Data Range (% inhibition),E (50-74% (or less than 75%))
"O=C(N[C@H](CN1CCCC1)[C@H](O)c1ccc2c(c1)OCCO2)[C@@H]1CCN(c2cnc3cccnc3c2)C1 [Compound 90, (R)-N-((1R,2R)-1-(2,3-dihydrobenzo[b][1,4]dioxin-6-yl)-1-hydroxy-3-(pyrrolidin-1-yl)propan-2-yl)-1-(1,5-naphthyridin-3-yl)pyrrolidine-3-carboxamide]",Data Range (% inhibition),F (1-49% (or less than 50%))
